Test results: ChEMBL document CHEMBL3880420, “1,5-Diaryl-2-alkylpyrrole-3-Substituted Nitro Esters, Selective COX-2 Inhibitors and Nitric Oxide Donors” (2013)
Activity calls are given as the source filed them. The calls are words filed in the database; no cut-off is given here.

System: not listed separately
Assay: Vasorelaxing effect in Wistar rat thoracic aorta ring assessed as reduction of KCl-induced contractile tone at 10 uM in presence of guanylate cyclase inhibitor ODQ1
Type: functional
Settings: not given
For `Cc1c(C(N)C(=O)OCCCO[N+](=O)[O-])cc(-c2ccc(S(C)(=O)=O)cc2)n1-c1ccc(F)cc1` (racemic), the Activity was “Active”. In the case of `CSc1ccc(-n2c(-c3ccc(S(C)(=O)=O)cc3)cc(CC(=O)OCCCCO[N+](=O)[O-])c2C)cc1`, the Activity is reported as “Active”. For `Cc1c(C(N)C(=O)OCCCCO[N+](=O)[O-])cc(-c2ccc(S(C)(=O)=O)cc2)n1-c1ccc(F)cc1` (racemic), the Activity was “Active”.

System: Liver
Assay: Induction of nitric oxide release in rat liver assessed as increase in nitrite levels at 1 mM by amperometric method
Type: functional, tissue-based
Settings: TDE = time-dependent effect
For `Cc1c(CCOCCCO[N+](=O)[O-])cc(-c2ccc(S(C)(=O)=O)cc2)n1-c1cccc(F)c1`, the Activity was “Tde”. For `COc1ccc2cc([C@H](C)C(=O)OCCCCO[N+](=O)[O-])ccc2c1`, the Activity was “Tde”.

System: Liver
Assay: Induction of nitric oxide release in rat liver assessed as time require for amount of nitrite release by test compound equal to half its maximum release at 1 mM by amperometric method
Type: functional
Settings: not given
In the case of `Cc1c(CCOCCO[N+](=O)[O-])cc(-c2ccc(S(C)(=O)=O)cc2)n1-c1cccc(F)c1`, the T1/2 is reported as 1.01 h. Molecule `O=C(NCCO[N+](=O)[O-])c1cccnc1` has a T1/2 of 0.463 h. `Cc1c(CCOCCO[N+](=O)[O-])cc(-c2ccc(S(C)(=O)=O)cc2)n1-c1ccc(F)cc1` gave a T1/2 of 0.713 h. Work on `Cc1c(CCOCCCO[N+](=O)[O-])cc(-c2ccc(S(C)(=O)=O)cc2)n1-c1cccc(F)c1` yielded a T1/2 of 1.41 h. In the case of `Cc1c(CC(=O)OCCO[N+](=O)[O-])cc(-c2ccc(S(C)(=O)=O)cc2)n1-c1ccc(F)cc1`, the T1/2 is reported as 1.15 h. In the case of `Cc1c(CCOCCO[N+](=O)[O-])cc(-c2ccc(S(C)(=O)=O)cc2)n1-c1ccc(F)c(F)c1`, the T1/2 is reported as 1.14 h.

Target: T1, Prostaglandin G/H synthase 1 (Mus musculus) (UniProt P22437)
T1 sequence (whole entry): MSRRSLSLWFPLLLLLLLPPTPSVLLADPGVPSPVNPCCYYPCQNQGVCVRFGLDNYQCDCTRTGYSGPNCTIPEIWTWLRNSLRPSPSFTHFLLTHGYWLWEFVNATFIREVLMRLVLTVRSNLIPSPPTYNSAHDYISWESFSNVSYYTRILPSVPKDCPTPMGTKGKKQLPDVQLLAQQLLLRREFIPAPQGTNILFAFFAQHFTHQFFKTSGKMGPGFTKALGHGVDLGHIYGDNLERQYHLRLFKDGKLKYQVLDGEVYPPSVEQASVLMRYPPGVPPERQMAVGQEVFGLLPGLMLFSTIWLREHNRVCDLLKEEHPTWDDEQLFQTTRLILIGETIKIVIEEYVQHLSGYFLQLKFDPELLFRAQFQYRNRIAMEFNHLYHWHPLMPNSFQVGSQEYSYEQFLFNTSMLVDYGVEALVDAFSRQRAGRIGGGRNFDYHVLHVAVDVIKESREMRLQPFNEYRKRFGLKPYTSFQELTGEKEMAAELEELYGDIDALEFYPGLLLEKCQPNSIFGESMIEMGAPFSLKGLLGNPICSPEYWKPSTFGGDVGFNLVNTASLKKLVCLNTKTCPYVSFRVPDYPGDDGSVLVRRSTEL
Assay: Inhibition of COX1 in mouse J774 cells using arachidonic acid as substrate assessed as decrease in PGE2 production at 10 uM preincubated for 15 mins followed by substrate addition measured after 30 mins by radioimmunoassay relative to control
Type: cell-based
Settings: not given
In the case of `Cc1c(CCOCCO[N+](=O)[O-])cc(-c2ccc(S(C)(=O)=O)cc2)n1-c1cccc(F)c1`, the inhibition is reported as < 20%. For `Cc1c(CC(=O)NCCO)cc(-c2ccc(S(C)(=O)=O)cc2)n1-c1ccc(F)cc1`, the inhibition was < 20%. With `Cc1c(CC(=O)NCCO)cc(-c2ccc(S(C)(=O)=O)cc2)n1-c1cccc(F)c1` the inhibition was < 20%. For `Cc1c(CCOCCO)cc(-c2ccc(S(C)(=O)=O)cc2)n1-c1ccc(F)c(F)c1`, the inhibition was < 20%. In the case of `Cc1c(CC(=O)OCCO[N+](=O)[O-])cc(-c2ccc(S(C)(=O)=O)cc2)n1-c1cccc(F)c1`, the inhibition is reported as < 20%. With `Cc1c(CC(=O)NC(CCO[N+](=O)[O-])C(=O)O)cc(-c2ccc(S(C)(=O)=O)cc2)n1-c1cccc(F)c1` (racemic) the inhibition was < 20%. For `CSc1ccc(-n2c(-c3ccc(S(C)(=O)=O)cc3)cc(CC(=O)OCCCCO)c2C)cc1`, the inhibition was < 20%. For `Cc1c(CC(=O)N[C@@H](CO)C(=O)O)cc(-c2ccc(S(C)(=O)=O)cc2)n1-c1ccc(F)cc1`, the inhibition was < 20%. In the case of `COc1ccc(-n2c(-c3ccc(S(C)(=O)=O)cc3)cc(CC(=O)OCCO)c2C)cc1`, the inhibition is reported as < 20%. In the case of `Cc1c(CCOCCCO)cc(-c2ccc(S(C)(=O)=O)cc2)n1-c1cccc(F)c1`, the inhibition is reported as < 20%. In the case of `Cc1c(CC(=O)NC(CCO[N+](=O)[O-])C(=O)O)cc(-c2ccc(S(C)(=O)=O)cc2)n1-c1ccc(F)cc1` (racemic), the inhibition is reported as < 20%. With `Cc1c(CC(=O)NCCO[N+](=O)[O-])cc(-c2ccc(S(C)(=O)=O)cc2)n1-c1ccc(F)cc1` the inhibition was < 20%. In the case of `Cc1c(CC(=O)OCCCCO)cc(-c2ccc(S(C)(=O)=O)cc2)n1-c1cccc(F)c1`, the inhibition is reported as < 20%. With `Cc1c(CCOCCO[N+](=O)[O-])cc(-c2ccc(S(C)(=O)=O)cc2)n1-c1ccc(F)cc1` the inhibition was < 20%. For `COc1ccc(-n2c(-c3ccc(S(C)(=O)=O)cc3)cc(CC(=O)OCCCCO[N+](=O)[O-])c2C)cc1`, the inhibition was < 20%. With `Cc1c(CCOCCCO[N+](=O)[O-])cc(-c2ccc(S(C)(=O)=O)cc2)n1-c1cccc(F)c1` the inhibition was < 20%. With `Cc1c(CC(=O)OCCO)cc(-c2ccc(S(C)(=O)=O)cc2)n1-c1ccccc1` the inhibition was < 20%. In the case of `Cc1c(CC(=O)OCCCCO[N+](=O)[O-])cc(-c2ccc(S(C)(=O)=O)cc2)n1-c1cccc(F)c1`, the inhibition is reported as < 20%. For `COc1ccc(-n2c(-c3ccc(S(C)(=O)=O)cc3)cc(CC(=O)OCCCO[N+](=O)[O-])c2C)cc1`, the inhibition was < 20%. In the case of `Cc1c(C(N)C(=O)OCCO[N+](=O)[O-])cc(-c2ccc(S(C)(=O)=O)cc2)n1-c1ccc(F)cc1` (racemic), the inhibition is reported as < 20%. With `COc1ccc(-n2c(-c3ccc(S(C)(=O)=O)cc3)cc(CC(=O)OCCCO)c2C)cc1` the inhibition was < 20%. In the case of `CSc1ccc(-n2c(-c3ccc(S(C)(=O)=O)cc3)cc(CC(=O)OCCO[N+](=O)[O-])c2C)cc1`, the inhibition is reported as < 20%. For `Cc1c(CC(=O)OCCCCO[N+](=O)[O-])cc(-c2ccc(S(C)(=O)=O)cc2)n1-c1ccc(F)cc1`, the inhibition was < 20%. For `Cc1c(CCOCCO)cc(-c2ccc(S(C)(=O)=O)cc2)n1-c1ccccc1`, the inhibition was < 20%. For `Cc1c(CC(=O)OCCO[N+](=O)[O-])cc(-c2ccc(S(C)(=O)=O)cc2)n1-c1ccccc1`, the inhibition was < 20%. For `Cc1c(CC(=O)NCCCO)cc(-c2ccc(S(C)(=O)=O)cc2)n1-c1cccc(F)c1`, the inhibition was < 20%. With `Cc1c(CC(=O)OCCO)cc(-c2ccc(S(C)(=O)=O)cc2)n1-c1cccc(F)c1` the inhibition was < 20%. For `Cc1c(CCOCCCO)cc(-c2ccc(S(C)(=O)=O)cc2)n1-c1ccc(F)cc1`, the inhibition was < 20%. For `COc1ccc(-n2c(-c3ccc(S(C)(=O)=O)cc3)cc(CC(=O)OCCO[N+](=O)[O-])c2C)cc1`, the inhibition was < 20%. For `Cc1c(CC(=O)N[C@@H](CO[N+](=O)[O-])C(=O)O)cc(-c2ccc(S(C)(=O)=O)cc2)n1-c1cccc(F)c1`, the inhibition was < 20%. For `COc1ccc(-n2c(-c3ccc(S(C)(=O)=O)cc3)cc(CC(=O)OCCCCO)c2C)cc1`, the inhibition was < 20%. In the case of `Cc1c(CCOCCCO[N+](=O)[O-])cc(-c2ccc(S(C)(=O)=O)cc2)n1-c1ccc(F)cc1`, the inhibition is reported as < 20%. In the case of `Cc1c(CC(=O)OCC(CO[N+](=O)[O-])O[N+](=O)[O-])cc(-c2ccc(S(C)(=O)=O)cc2)n1-c1ccccc1` (racemic), the inhibition is reported as < 20%. In the case of `Cc1c(CC(=O)N[C@@H](CO[N+](=O)[O-])C(=O)O)cc(-c2ccc(S(C)(=O)=O)cc2)n1-c1ccc(F)cc1`, the inhibition is reported as < 20%. In the case of `CSc1ccc(-n2c(-c3ccc(S(C)(=O)=O)cc3)cc(CC(=O)OCCCO)c2C)cc1`, the inhibition is reported as < 20%. In the case of `Cc1c(CC(=O)NC(CCO)C(=O)O)cc(-c2ccc(S(C)(=O)=O)cc2)n1-c1ccc(F)cc1` (racemic), the inhibition is reported as < 20%. For `Cc1c(CCOCCCO[N+](=O)[O-])cc(-c2ccc(S(C)(=O)=O)cc2)n1-c1ccccc1`, the inhibition was < 20%. In the case of `Cc1c(CC(=O)OCCO[N+](=O)[O-])cc(-c2ccc(S(C)(=O)=O)cc2)n1-c1ccc(F)cc1`, the inhibition is reported as < 20%. In the case of `Cc1c(C(N)C(=O)OCCCO[N+](=O)[O-])cc(-c2ccc(S(C)(=O)=O)cc2)n1-c1ccc(F)cc1` (racemic), the inhibition is reported as < 20%. In the case of `CSc1ccc(-n2c(-c3ccc(S(C)(=O)=O)cc3)cc(CC(=O)OCCCCO[N+](=O)[O-])c2C)cc1`, the inhibition is reported as < 20%. For `Cc1c(CC(=O)NCCCO)cc(-c2ccc(S(C)(=O)=O)cc2)n1-c1ccc(F)cc1`, the inhibition was < 20%. In the case of `Cc1c(CCOCCO[N+](=O)[O-])cc(-c2ccc(S(C)(=O)=O)cc2)n1-c1ccccc1`, the inhibition is reported as < 20%. In the case of `Cc1c(C(N)C(=O)OCCCCO[N+](=O)[O-])cc(-c2ccc(S(C)(=O)=O)cc2)n1-c1ccc(F)cc1` (racemic), the inhibition is reported as < 20%. With `CSc1ccc(-n2c(-c3ccc(S(C)(=O)=O)cc3)cc(CC(=O)OCCCO[N+](=O)[O-])c2C)cc1` the inhibition was < 20%. With `Cc1c(CC(=O)OCCCO)cc(-c2ccc(S(C)(=O)=O)cc2)n1-c1cccc(F)c1` the inhibition was < 20%. For `CSc1ccc(-n2c(-c3ccc(S(C)(=O)=O)cc3)cc(CC(=O)OCCO)c2C)cc1`, the inhibition was < 20%. In the case of `Cc1c(CCOCCO)cc(-c2ccc(S(C)(=O)=O)cc2)n1-c1ccc(F)cc1`, the inhibition is reported as < 20%. In the case of `Cc1c(CCOCCO)cc(-c2ccc(S(C)(=O)=O)cc2)n1-c1cccc(F)c1`, the inhibition is reported as < 20%. With `Cc1c(CC(=O)OCCO)cc(-c2ccc(S(C)(=O)=O)cc2)n1-c1ccc(F)cc1` the inhibition was < 20%. With `Cc1c(CC(=O)OCCCO[N+](=O)[O-])cc(-c2ccc(S(C)(=O)=O)cc2)n1-c1cccc(F)c1` the inhibition was < 20%. For `Cc1c(CCOCCO[N+](=O)[O-])cc(-c2ccc(S(C)(=O)=O)cc2)n1-c1ccc(F)c(F)c1`, the inhibition was < 20%. In the case of `Cc1c(CC(=O)N[C@@H](CO)C(=O)O)cc(-c2ccc(S(C)(=O)=O)cc2)n1-c1cccc(F)c1`, the inhibition is reported as < 20%.
